Experiment [1] concerns platelet-leukocyte aggregates. Description: Flow cytometry of platelet-leukocyte aggregates in whole blood after stroke. The format is in vivo. The following applies: whole blood at 24 hours after ischemia onset; vs saline-treated stroke rats; n=3 rats per group. On the procedure: (§1) Elevated platelet activation and platelet-leukocyte interaction contribute importantly to pro-inflammatory and thrombotic events during ischemia-reperfusion injury after stroke. We used flow cytometry to analyze platelet activation and platelet-leukocyte aggregates in whole blood at 24 hours after ischemia onset (FIG. 9A).
(§2) Methods: Blood was drawn into a heparinized capillary tube via the retro-orbital plexus at 24 h after stroke. Whole blood was diluted 1:10 with Flow Cytometry Staining Buffer (eBioscience) containing rat Fc block anti-rat CD32. For evaluation of platelet activation, sample was co-stained with the FITC mouse anti-rat CD42d (1:200, RPM.4) for platelets and PE/Cy7 mouse anti-rat CD62P (1:100, RMP-1) for P-selectin expression. For detection of platelet-leukocyte aggregates (PLA) formation, samples were co-stained with FITC mouse anti-rat CD42d (1:200, RPM.4), PE mouse anti-rat granulocytes (1:100, RP-1), APC mouse anti-rat CD11b (1:50, WT.5) and PE/Cy7 mouse anti-rat CD45 (1:100, OX-1). Isotype-matched control antibodies were used to differentiate non-specific background signal from specific antibody signals. The samples were analyzed on the BD Accuri™ C6 flow cytometer.
A general note: A flow cytometer gives signals particle by particle.

Another experiment has as its system microglia (Iba-1). The experiment can be described thus: Immunostaining of microglia (Iba-1) expansion after thromboembolic stroke. The format is in vivo, rats. Conditions: poststroke; delayed tPA alone or with J147; n=3 animals per group. On the procedure:
(§3) Methods: At the indicated time point, animals were euthanized with CO2 and transcardially perfused with 200 mL ice-cold PBS (0.01 M, pH 7.4) followed by 4% paraformaldehyde (PFA). The brains were removed and post-fixed in 4% PFA solution for overnight at 4° C. Brain samples were then cryoprotected by immersion in 10%, 20%, and 30% gradient sucrose solutions for 48 h at 4° C. respectively. After that, the brains were embedded in optimal cutting temperature (OCT) compound. Coronal sections (15 um) were cut at 0.4 to 1.4 mm posterior to bragma using a cryostat and mounted on positively charged slides. Every twentieth coronal section for a total five sections was used for immunohistochemistry. The primary antibodies: IBa-1 (1:200, Wako), MPO (1:200, Abcam), MMP9 (1:100, R&D), EBA (endothelial barrier antigen, a marker for endothelium in the vessels, 1:500, Covance), fibrinogen (1:200, Dako), thrombocyte (1:200, lifespan) and PAI-1 (1:200, Novus Biologicals) were used. […]
(§4) For quantification, the number of immunoreactive vessels were counted in the ischemic boundary zone. All immunostaining data was analyzed by an investigator blinded to experimental groups using Image Pro plus software (version 5.1, Media Cybernetics, Inc.) and data are presented as the density of immunoreactive vessels relative to the imaged area (mm2) as described. Data were expressed as mean±standard error of the mean (SEM). […]

Experiment [2] deals with neutrophil (MPO) infiltration. The experiment can be described thus: Immunostaining of brain neutrophil (MPO) infiltration after thromboembolic stroke. The format is in vivo, rats. The following applies: poststroke; delayed tPA alone or with J147; n=3 animals per group. On the procedure: as §3, §4
For another experiment, the system named is MMP-9. The experiment can be described thus: Double immunohistochemistry for MMP-9 expression in the brain after thromboembolic stroke. The format is in vivo, rats. Conditions: 24 hours after stroke; tPA at 4 h alone or with J147; n=3 animals per group. On the procedure:
MMPs, in particular MMP-9, play a critical role in the stroke-associated blood-brain barrier (BBB) disruption, hemorrhagic transformation and neuroinflammation after stroke. Double immunohistochemistry was performed to determine MMP-9 expression in the brain at 24 hours after stroke (FIG. 7A).
Methods: At the indicated time point, animals were euthanized with CO2 and transcardially perfused with 200 mL ice-cold PBS (0.01 M, pH 7.4) followed by 4% paraformaldehyde (PFA). The brains were removed and post-fixed in 4% PFA solution for overnight at 4° C. Brain samples were then cryoprotected by immersion in 10%, 20%, and 30% gradient sucrose solutions for 48 h at 4° C. respectively. After that, the brains were embedded in optimal cutting temperature (OCT) compound. Coronal sections (15 um) were cut at 0.4 to 1.4 mm posterior to bragma using a cryostat and mounted on positively charged slides. […]
as §4

In experiment [3] the test system is platelet P-selectin (CD62P). Description: Flow cytometry of platelet activation (P-selectin) in whole blood after stroke. The experiment is classed as in vivo. Conditions: whole blood at 24 hours after ischemia onset; vs saline-treated stroke rats. On the procedure:
as §1, §2

The next experiment has as its system platelets. The experiment can be described thus: Double immunofluorescence of platelet (thrombocyte) accumulation in brain microvessels. The format is in vivo. The following applies: stroke rats; delayed tPA alone or with J147. On the procedure: as §3, §4
The next experiment has as its system fibrin/fibrinogen. The experiment can be described thus: Double immunofluorescence of intravascular fibrin/fibrinogen deposition in brain microvessels. The format is in vivo. The following applies: stroke rats; delayed tPA alone or with J147. On the procedure:
as §3, §4

The test system of experiment [4] is thromboembolic middle cerebral artery occlusion (MCAO). Description: J147+tPA expanded study: infarct volume, intracerebral hemorrhage, mortality (Example 4A). The experiment is classed as in vivo, SD rats. On the procedure:
Objective: To determine whether J147 can prevent tPA-associated brain hemorrhage and extend the treatment time window of tPA in a clinically relevant thromboembolic stroke model in rats. • J147 compound: Stock solution: 60 mg/ml DMSO, in 60 ul/vial, stored at −20° C. • Working solution: 3 mg/ml in 5% DMSO, 70% PEG200 and 25% normal saline, prepared prior to injection. • One vial stock solution was warmed at 37° C. and mixed with 1140 ul sterilized solution (PEG200: saline, 2.8:1). • Recombinant human tPA (Alteplase, 2.2 mg/vial): Reconstituted with 1.1 ml water (2 mg/ml). 10 mg/kg, 10% bonus injection, 90%30 min. via mini pump. A. Infarct Volume and Intracerebral Hemorrhage
Methods: Male SD rats (280-300 g) were subjected to thromboembolic middle cerebral artery occlusion (MCAO) and treated with saline at 4 hours, tPA (tissue-type plasminogen activator; 10 mg/kg, IV) at 4 hours, and combined J147 (10 mg/kg, IV) plus tPA at 4 hours after onset of ischemia. Bederson score was examined prior to the sacrifice at 72 h after stroke. Infarct volumes, brain hemorrhage, and animal mortality were measured.

Experiment [5] has as its system suture-type transient middle cerebral artery occlusion (MCAO) model. The experiment can be described thus: Suture transient MCAO model, 2 h ischemia, reperfusion 24 h (Example 1). The following applies: for infarct volume (TTC staining) relative to placebo: 24 h after reperfusion. The experiment is classed as in vivo, Sprague Dawley rats. On the procedure: In this model, J147 was administered i.v. at doses of 1 mg/kg, 10 mg/kg and 30 mg/kg of total body weight immediately after reperfusion (i.e., about 2 hours after ischemia onset). […] Maximum volume (iv., bolus)=5 ml/kg. (ip., bolus)=10 ml/kg. […] The Bederson scale is a global neurological assessment that was developed to measure neurological impairments following stroke. Tests include forelimb flexion, resistance to lateral push and circling behavior. In this case, a Bederson grading scale of 0-5 was used to assess behavioral deficits after reperfusion. This scoring scale is a simple way to reveal basic neurological deficits.

The subject of the next experiment is eMCAO, 4 μm blood clot. The experiment can be described thus: J147 alone in embolic MCAO (eMCAO) model without tPA or reperfusion (Example 5). The experiment is classed as in vivo, SD rats. Conditions: J147 alone 1 mg/ml or 10 mg/ml i.v., or 30 mg/ml i.p. two hours after stroke onset; no tPA, no reperfusion; 24 hours after stroke. On the procedure: In this example, an eMCAO experiment was performed to determine if J147 alone (i.e., without administration of TPA or other thrombolytic intervention) provided any therapeutic benefit for stroke in the absence of reperfusion caused by TPA.

In experiment [6] the test system is suture MCAO-induced ischemia followed by reperfusion. The experiment can be described thus: J147 dose-response, 2-hour suture MCAO followed by reperfusion, 72 h (Example 3). The experiment is classed as in vivo, SD rats. On the procedure: Objective: […] Methods: […] J147 compound (1.0, 10, 30 mg/kg) and vehicle were administered at 2 hours after onset of ischemia (FIG. 5). Bederson score was examined prior to the sacrifice at 72 h after stroke. Infarct volumes in TTC-stained brain coronal sections were measured.

Where [7] appears, read: tPA 10 mg/kg IV at 4 hours, alone or with J147 10 mg/kg IV, 72 h after stroke.
Where [8] appears, read: J147 1.0, 10, 30 mg/kg at 2 hours after onset of ischemia, 72 h after stroke, dose-dependent, vs vehicle.

Consider “tPA: Recombinant human tPA (Alteplase), tissue-type plasminogen activator; thrombolytic approved for the treatment of stroke”, for which, in [1], the “platelet-granulocyte (platelet-neutrophil) aggregates” value is “no additional effect”. Further, in the experiment on microglia (Iba-1), the “microglia expansion (number of Iba-1-positive cells)” value is “no significant effect”. The “neutrophil (MPO positive cells) infiltration into the brain parenchyma” value in [2] is given as “further augmented”. The “MMP-9 expression on individual cells and brain microvessels” value in the experiment on MMP-9 is listed as “further increased”. Moreover, in experiment [3], the “platelet activation (platelet P-selectin expression)” value is “no additional effect”. The “platelets deposited in downstream microvessels” value in the experiment on platelets was “markedly increased”. Moreover, the “fibrin/fibrinogen deposited in downstream microvessels” value with fibrin/fibrinogen is given as “markedly increased”. Further, in experiment [4] (setting [7]), the “brain hemorrhage / hemorrhagic transformation” value was “worsened” and the “brain infarction / infarct volume” value is recorded as “did not decrease”. Also, the mortality rate in [4] (treatment at 4 h after onset of ischemia, log-rank test, saline 25%) is on record as 32%. The “Death (number of rats)” value in [4] (treatment at 4 h after onset of ischemia, tPA n = 22, J147 plus tPA n = 17, saline 3 of 12) turned out to be 7.

With `COc1cccc(/C=N/N(C(=O)C(F)(F)F)c2ccc(C)cc2C)c1` [Compound J147], the “infarct volume (TTC staining) relative to placebo” value in [5] (1 mg/kg J147 iv) is recorded as “insignificant reduction”; in experiment [5] (10 mg/kg J147 iv), “large reduction”; in experiment [5] (J147 intraperitoneally), “modest reduction”. Moreover, the optimal effective dose in experiment [5] (iv, immediately after reperfusion, doses tested 1, 10 and 30 mg/kg) came to 10 mg/kg. Besides, in the experiment with eMCAO, 4 μm blood clot, the “protection from stroke (infarct volume, TTC staining)” value is recorded as “fails to provide any significant protection”. Also, the infarct volumes result in [6] (setting [8]) is “significantly reduced”. Further, the “neurological deficit (Bederson score)” value in experiment [6] (setting [8]) is reported as “significantly reduced”. In experiment [6] (treatment of acute ischemic stroke in rats, doses tested 1.0, 10, 30 mg/kg), the effective optimal dose is reported as 10 mg/kg.

These data come from patent US12496281B2, “Compounds for prevention and treatment of hemorrhage and vasculature instability” (Abrexa Pharmaceuticals, Inc., priority 2020, dated 2025).
